Key:
Type in all cases: cell-based
Details in all cases: Homo sapiens
[1] = tested on: C4-2 castration-resistant prostate cancer cells; test: Docetaxel cell viability, C4-2 cells
Description: (§1) Castration-resistant prostate cancer cells (C4-2), Myb-knockdown castration-resistant prostate cancer cells (C4-2 shMyb), androgen-dependent prostate cancer cells (LNCap-Neo), Myb-overexpressing androgen-dependent prostate cancer cells (LNCaP-Myb), were treated with increasing concentrations of Docetaxel and the viability tested at 48 hr and 72 hr post-treatment. […] Table 2 summarizes the IC50 values for docetaxel in the various cell lines.

[2] = tested on: C4-2 shMyb Myb-knockdown castration-resistant prostate cancer cells; test: Docetaxel cell viability, C4-2shMyb cells
Description: as §1

[3] = tested on: LNCaP-Neo androgen-dependent prostate cancer cells; test: Docetaxel cell viability, LNCaP-Neo cells
Description: as §1

[4] = tested on: LNCaP-Myb Myb-overexpressing androgen-dependent prostate cancer cells; test: Docetaxel cell viability, LNCaP-Myb cells
Description: as §1

With `CC(=O)O[C@@]12CO[C@@H]1C[C@H](O)[C@@]1(C)C(=O)[C@H](O)C3=C(C)[C@@H](OC(=O)[C@H](O)[C@@H](NC(=O)OC(C)(C)C)c4ccccc4)C[C@@](O)([C@@H](OC(=O)c4ccccc4)[C@H]21)C3(C)C` [Docetaxel] the IC50 ([1]; C4-2, 48 hours) was 18.2 µM, the IC50 ([1]; C4-2, 72 hours) was 13.1 µM and the IC50 ([2]; 48 hours) was 7 µM. The IC50 ([2]; 72 hours) was 4.8 µM, the IC50 ([3]; 48 hours) was 7.6 µM and the IC50 ([3]; 72 hours) was 4.9 µM. The IC50 ([4]; 48 hours) was 20.6 µM and the IC50 ([4]; 72 hours) was 14.8 µM.

— patent US9458456B2, “Methods and compositions for the diagnosis, classification, and treatment of cancer” (UNIVERSITY OF SOUTH ALABAMA, priority 2011, dated 2016)
